Patent US20090029949A1, “GPCR Ligands Identified by Computational Modeling” (priority 2006, published 2009)

Tests used:
S1P1 mutant I5.41F = molecular target: T1, S1P1 mutant I5.41F (Homo sapiens, UniProt P21453, I203F); experiment: [35S]GTPγS binding, S1P1 I5.41F; type: biochemical; settings: S1P-induced, S1P1 I5.41F in RH7777 cells
T1 construct: expressed in transfected cells; host or cells: RH7777 (transient, pcDNA3.1)
Procedure: (§1) RH7777 and HEK-293 cells (ATCC, Manassas, Va.) were maintained in Dulbecco's modified minimal essential medium (DMEM) containing 10% fetal bovine serum (Hyclone, Logan, Utah). Cells (2×10^6) were transfected with 2 μg of plasmid DNA with Effectene (Qiagen, Valencia, Calif.) according to the manufacturer's instructions, for 24 h. Before ligand binding and receptor activation assays, the cells were washed twice with serum-free DMEM and serum-starved for at least 6 h.
(§2) S1P1 Receptor Activation Assays Receptor functional assays were performed in transiently transfected RH7777 cells by measuring S1P-activated [^35S]GTPγS binding as previously described (28).

S1P1 mutant I5.41A = molecular target: T2, S1P1 mutant I5.41A (Homo sapiens, UniProt P21453, I203A); experiment: [35S]GTPγS binding, S1P1 I5.41A; type: biochemical; settings: S1P-induced, S1P1 I5.41A in RH7777 cells
T2 construct: expressed in transfected cells; host or cells: RH7777 (transient, pcDNA3.1)
T2 sequence (P21453 whole entry I203A): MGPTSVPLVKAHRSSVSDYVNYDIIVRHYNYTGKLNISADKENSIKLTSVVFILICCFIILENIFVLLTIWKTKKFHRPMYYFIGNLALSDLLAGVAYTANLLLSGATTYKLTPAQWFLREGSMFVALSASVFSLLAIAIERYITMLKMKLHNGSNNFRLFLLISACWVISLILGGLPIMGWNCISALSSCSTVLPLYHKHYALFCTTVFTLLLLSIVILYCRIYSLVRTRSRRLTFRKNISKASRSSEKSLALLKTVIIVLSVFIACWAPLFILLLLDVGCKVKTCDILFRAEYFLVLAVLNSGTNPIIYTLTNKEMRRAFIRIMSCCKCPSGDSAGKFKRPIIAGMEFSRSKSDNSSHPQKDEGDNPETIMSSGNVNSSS
Procedure: as §1, §2

WT S1P1 = WT S1P1 (Homo sapiens, UniProt P21453); experiment: [32P]S1P competition binding, HEK-293 cells, WT-S1P1; settings: WT-S1P1, HEK-293 cells
Sequence of WT S1P1 (P21453 whole entry): as the sequence (P21453 whole entry I203A) above, with A203I counted along it
Procedure: (§3) For the competition assays, HEK-293 cells were used. Briefly, 4×10^5 cells were plated in 24-well dishes and allowed to adhere overnight. The cells were then transfected with 0.4 μg of the cDNA using Lipofectamine 2000 (Invitrogen) and the transfection proceeded for 48 h. After washing the cells twice with ice-cold binding buffer (20 mM Tris-HCl, pH 7.4 and 150 mM NaCl), 0.1 nM [^32P]S1P and competing concentrations of cold S1P (1 nM-10 μM), resuspended in binding buffer+4% BSA, were applied to the cells and incubated on ice for 30 min. After washing the cells twice with ice-cold binding buffer+0.4% BSA, the cells were lysed with 0.5% SDS and equilibrated in scintillation fluid. The samples were measured in triplicate.

S1P1 mutant F5.43Y = molecular target: T3, S1P1 mutant F5.43Y (Homo sapiens, UniProt P21453, F205Y); experiment: [35S]GTPγS binding, S1P1 F5.43Y; type: biochemical; settings: S1P-induced, S1P1 F5.43Y in RH7777 cells
T3 construct: expressed in transfected cells; host or cells: RH7777 (transient, pcDNA3.1)
T3 sequence (P21453 whole entry F205Y): as the sequence (P21453 whole entry I203A) above, with A203I, F205Y counted along it
Procedure: as §1, §2

S1P1 mutant V6.40A [1] = molecular target: T4, S1P1 mutant V6.40A (Homo sapiens, UniProt P21453, V261A); experiment: [32P]S1P competition binding, HEK-293 cells, V6.40A; parameters: expressed in transfected cells; settings: S1P1 V6.40A
T4 sequence (P21453 whole entry V261A): as the sequence (P21453 whole entry I203A) above, with A203I, V261A counted along it
Procedure: as §3

S1P1 mutant V6.40A [2] = molecular target: T4, S1P1 mutant V6.40A; experiment: [35S]GTPγS binding, S1P1 V6.40A; type: biochemical; parameters: expressed in transfected cells; host or cells: RH7777 (GTPγS); settings: S1P-induced, S1P1 V6.40A in RH7777 cells
Procedure: as §1, §2

S1P1 mutant W6.48E = molecular target: T5, S1P1 mutant W6.48E (Homo sapiens, UniProt P21453, W269E); experiment: [35S]GTPγS binding, S1P1 W6.48E; type: biochemical; settings: S1P-induced, S1P1 W6.48E in RH7777 cells
T5 construct: expressed in transfected cells; host or cells: RH7777
T5 sequence (P21453 whole entry W269E): as the sequence (P21453 whole entry I203A) above, with A203I, W269E counted along it
Procedure: as §1, §2

S1P1 mutant V5.47T = molecular target: T6, S1P1 mutant V5.47T (Homo sapiens, UniProt P21453, V209T); experiment: [35S]GTPγS binding, S1P1 V5.47T; type: biochemical; settings: S1P-induced, S1P1 V5.47T in RH7777 cells
T6 construct: expressed in transfected cells; host or cells: RH7777
T6 sequence (P21453 whole entry V209T): as the sequence (P21453 whole entry I203A) above, with A203I, V209T counted along it
Procedure: as §1, §2

S1P1 mutant V6.40L = molecular target: T7, S1P1 mutant V6.40L (Homo sapiens, UniProt P21453, V261L); experiment: [32P]S1P radioligand binding, RH7777 cells, V6.40L; settings: radioligand 50 nM, S1P1 V6.40L
T7 construct: expressed in transfected cells; host or cells: RH7777
T7 sequence (P21453 whole entry V261L): as the sequence (P21453 whole entry I203A) above, with A203I, V261L counted along it
Procedure: as §1
The S1P binding assays were done essentially as previously described (28). Transfected RH7777 cells (5×10^5) were incubated at 4° C. in 20 mM Tris-HCl (pH 7.5) binding buffer containing 100 mM NaCl, 15 mM NaF, protease inhibitor cocktail (Sigma-Aldrich), and 0.2 mg/ml essentially fatty-acid free BSA with 1 nM [^32P]S1P in 50 nM S1P for 40 min. Cells were centrifuged and washed twice in binding buffer. The final pellet was resuspended in 2:1 CHCl3/MeOH and the suspension was equilibrated in scintillation fluid overnight. Cell-bound radioactivity was measured by liquid scintillation counting using a Beckman LS5000 TA counter (Beckman Coulter, Irvine, Calif.). Specific binding was defined as the difference between total binding and non-specific binding (in the presence of 2-5 μM cold S1P). Standard errors were computed on the basis of triplicate samples from two simultaneous transfections.

S1P1 mutant F5.43G = molecular target: T8, S1P1 mutant F5.43G (Homo sapiens, UniProt P21453, F205G); experiment: [35S]GTPγS binding, S1P1 F5.43G; type: biochemical; settings: S1P-induced, S1P1 F5.43G in RH7777 cells
T8 construct: expressed in transfected cells; host or cells: RH7777 (transient, pcDNA3.1)
T8 sequence (P21453 whole entry F205G): as the sequence (P21453 whole entry I203A) above, with A203I, F205G counted along it
Procedure: as §1, §2

[3] = Ligand-induced [35S]GTPγS binding, empty vector; type: biochemical; settings: S1P-induced, empty vector in RH7777 cells
Procedure: as §1, §2

S1P1 mutant L3.36E = S1P1 mutant L3.36E (Homo sapiens, UniProt P21453, L128E); experiment: [32P]S1P competition binding, HEK-293 cells, L3.36E; parameters: expressed in transfected cells; settings: S1P1 L3.36E
Sequence of S1P1 mutant L3.36E (P21453 whole entry L128E): as the sequence (P21453 whole entry I203A) above, with L128E, A203I counted along it
Procedure: as §3

S1P1 mutant L5.51E = molecular target: T9, S1P1 mutant L5.51E (Homo sapiens, UniProt P21453, L213E); experiment: [35S]GTPγS binding, S1P1 L5.51E; type: biochemical; settings: S1P-induced, S1P1 L5.51E in RH7777 cells
T9 construct: expressed in transfected cells; host or cells: RH7777 (transient, pcDNA3.1)
T9 sequence (P21453 whole entry L213E): as the sequence (P21453 whole entry I203A) above, with A203I, L213E counted along it
Procedure: as §1, §2

S1P1 mutant L3.36G = molecular target: T10, S1P1 mutant L3.36G (Homo sapiens, UniProt P21453, L128G); experiment: [35S]GTPγS binding, S1P1 L3.36G; type: biochemical; settings: S1P-induced, S1P1 L3.36G in RH7777 cells
T10 construct: expressed in transfected cells; host or cells: RH7777 (transient, pcDNA3.1)
T10 sequence (P21453 whole entry L128G): as the sequence (P21453 whole entry I203A) above, with L128G, A203I counted along it
Procedure: as §1, §2

S1P1 mutant T5.49G = molecular target: T11, S1P1 mutant T5.49G (Homo sapiens, UniProt P21453, T211G); experiment: [35S]GTPγS binding, S1P1 T5.49G; type: biochemical; settings: S1P-induced, S1P1 T5.49G in RH7777 cells
T11 construct: expressed in transfected cells; host or cells: RH7777 (transient, pcDNA3.1)
T11 sequence (P21453 whole entry T211G): as the sequence (P21453 whole entry I203A) above, with A203I, T211G counted along it
Procedure: as §1, §2

S1P1 mutant F5.48G = molecular target: T12, S1P1 mutant F5.48G (Homo sapiens, UniProt P21453, F210G); experiment: [32P]S1P competition binding, HEK-293 cells, F5.48G; settings: S1P1 F5.48G
T12 construct: expressed in transfected cells
T12 sequence (P21453 whole entry F210G): as the sequence (P21453 whole entry I203A) above, with A203I, F210G counted along it
Procedure: as §3

[4] = competition with cold S1P, read-out: KD + s.d.

T1 sequence (P21453 whole entry I203F): as the sequence (P21453 whole entry I203A) above, with A203F counted along it

CCCCCCCCCCCCC/C=C/[C@@H](O)[C@@H](N)COP(=O)(O)O [S1P, Sphingosine 1-phosphate] gave an EC50 (S1P1 mutant I5.41F) of 18.9 nM, an Emax (S1P1 mutant I5.41F; read-out: % WT Emax + s.d.) of 27% and an EC50 (S1P1 mutant I5.41A) of 157 nM. The Emax (S1P1 mutant I5.41A; read-out: % WT Emax + s.d.) was 26%, the Bmax (WT S1P1) was 2450 fmol and the Kd (WT S1P1; [4]) was 38.7 nM. The EC50 (S1P1 mutant F5.43Y) was 23 nM, the Emax (S1P1 mutant F5.43Y; read-out: % WT Emax + s.d.) was 90% and the Bmax (S1P1 mutant V6.40A [1]) was 2040 fmol. It also gave a Kd (S1P1 mutant V6.40A [1]; [4]) of 27.6 nM, an EC50 (S1P1 mutant V6.40A [2]) of 14.8 nM and an Emax (S1P1 mutant V6.40A [2]; read-out: % WT Emax + s.d.) of 69%. For the same molecule, the “% WT Emax + s.d.” value (S1P1 mutant W6.48E) was “∞”, the “EC50 + s.d.” value (S1P1 mutant W6.48E) was “∞” and the EC50 (S1P1 mutant V5.47T) was 89 nM. For the same molecule, the Emax (S1P1 mutant V5.47T; read-out: % WT Emax + s.d.) was 100%, the “[32P]S1P binding relative to WT” value (S1P1 mutant V6.40L) was > 50 % of the WT and the EC50 (S1P1 mutant F5.43G) was 11.8 nM. The Emax (S1P1 mutant F5.43G; read-out: % WT Emax + s.d.) was 70%, the “% WT Emax + s.d.” value [3] was “∞” and the “EC50 + s.d.” value [3] was “∞”. For the same molecule, the Bmax (S1P1 mutant L3.36E) was 1980 fmol, the Kd (S1P1 mutant L3.36E; [4]) was 27.8 nM and the “% WT Emax + s.d.” value (S1P1 mutant L5.51E) was “∞”. For the same molecule, the “EC50 + s.d.” value (S1P1 mutant L5.51E) was “∞”, the EC50 (S1P1 mutant L3.36G) was 23 ± 8 nM and the Emax (S1P1 mutant L3.36G; read-out: % WT Emax + s.d.) was 75%. The EC50 (S1P1 mutant T5.49G) was 5.4 nM, the Emax (S1P1 mutant T5.49G; read-out: % WT Emax + s.d.) was 107% and the Bmax (S1P1 mutant F5.48G) was 2580 fmol. For the same molecule, the Kd (S1P1 mutant F5.48G; [4]) was 20.2 nM.
